Consider 11 compounds from ChEMBL document CHEMBL3991601, “The target landscape of clinical kinase drugs” (Science, 2017).

The target of experiment [1] is Serine/threonine-protein kinase PAK 2 (Homo sapiens, UniProt Q13177).
Experiment [2] addresses Serine/threonine-protein kinase/endoribonuclease IRE2 (Homo sapiens, UniProt Q76MJ5).
The target of experiment [3] is T1, Non-receptor tyrosine-protein kinase TNK1 (Homo sapiens, UniProt Q13470).
T1 sequence (Q13470 whole entry): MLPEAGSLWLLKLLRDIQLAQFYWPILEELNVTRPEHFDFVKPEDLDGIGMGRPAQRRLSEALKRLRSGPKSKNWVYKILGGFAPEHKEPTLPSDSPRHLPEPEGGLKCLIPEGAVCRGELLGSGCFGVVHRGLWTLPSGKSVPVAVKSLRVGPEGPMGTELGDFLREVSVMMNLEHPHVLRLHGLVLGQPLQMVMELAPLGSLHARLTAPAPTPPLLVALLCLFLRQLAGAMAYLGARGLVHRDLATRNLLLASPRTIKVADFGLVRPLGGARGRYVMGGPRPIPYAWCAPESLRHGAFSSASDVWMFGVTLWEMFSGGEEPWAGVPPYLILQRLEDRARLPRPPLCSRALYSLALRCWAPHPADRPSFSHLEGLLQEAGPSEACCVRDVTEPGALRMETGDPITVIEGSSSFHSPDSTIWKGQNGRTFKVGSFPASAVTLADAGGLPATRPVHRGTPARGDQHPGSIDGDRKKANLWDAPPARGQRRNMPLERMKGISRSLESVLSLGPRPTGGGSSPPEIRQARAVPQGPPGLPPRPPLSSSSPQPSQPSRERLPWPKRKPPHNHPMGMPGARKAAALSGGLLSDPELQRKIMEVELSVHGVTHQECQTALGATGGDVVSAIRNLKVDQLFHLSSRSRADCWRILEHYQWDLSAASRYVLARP

The target in experiment [4] is T2, ATP-dependent RNA helicase DDX1 (Homo sapiens, UniProt Q92499).
T2 sequence (Q92499 whole entry): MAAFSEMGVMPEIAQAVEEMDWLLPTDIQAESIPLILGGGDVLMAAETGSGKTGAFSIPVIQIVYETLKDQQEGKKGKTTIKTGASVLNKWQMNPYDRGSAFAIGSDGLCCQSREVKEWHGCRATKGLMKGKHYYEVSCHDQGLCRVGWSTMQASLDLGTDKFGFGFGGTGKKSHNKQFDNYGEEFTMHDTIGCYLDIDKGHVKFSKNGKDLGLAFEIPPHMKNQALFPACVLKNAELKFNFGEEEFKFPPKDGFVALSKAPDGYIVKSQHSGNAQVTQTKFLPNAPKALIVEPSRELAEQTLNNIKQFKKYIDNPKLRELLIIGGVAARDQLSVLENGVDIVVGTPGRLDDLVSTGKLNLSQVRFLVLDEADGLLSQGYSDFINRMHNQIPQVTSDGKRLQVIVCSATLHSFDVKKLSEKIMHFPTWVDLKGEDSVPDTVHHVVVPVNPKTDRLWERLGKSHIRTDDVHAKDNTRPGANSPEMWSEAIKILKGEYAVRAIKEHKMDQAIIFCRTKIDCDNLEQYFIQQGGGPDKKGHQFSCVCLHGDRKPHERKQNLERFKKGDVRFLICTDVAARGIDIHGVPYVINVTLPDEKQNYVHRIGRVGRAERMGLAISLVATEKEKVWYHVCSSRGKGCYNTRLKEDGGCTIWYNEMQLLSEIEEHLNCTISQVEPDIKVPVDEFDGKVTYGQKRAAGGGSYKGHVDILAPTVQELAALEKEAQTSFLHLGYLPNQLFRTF

The target of experiment [5] is Atypical kinase COQ8A, mitochondrial (Homo sapiens, UniProt Q8NI60).
The target of experiment [6] is LIM domain kinase 1 (Homo sapiens, UniProt P53667).
Experiment [7] concerns the target T3, Structural maintenance of chromosomes protein 1A (Homo sapiens, UniProt Q14683).
T3 sequence (Q14683 whole entry): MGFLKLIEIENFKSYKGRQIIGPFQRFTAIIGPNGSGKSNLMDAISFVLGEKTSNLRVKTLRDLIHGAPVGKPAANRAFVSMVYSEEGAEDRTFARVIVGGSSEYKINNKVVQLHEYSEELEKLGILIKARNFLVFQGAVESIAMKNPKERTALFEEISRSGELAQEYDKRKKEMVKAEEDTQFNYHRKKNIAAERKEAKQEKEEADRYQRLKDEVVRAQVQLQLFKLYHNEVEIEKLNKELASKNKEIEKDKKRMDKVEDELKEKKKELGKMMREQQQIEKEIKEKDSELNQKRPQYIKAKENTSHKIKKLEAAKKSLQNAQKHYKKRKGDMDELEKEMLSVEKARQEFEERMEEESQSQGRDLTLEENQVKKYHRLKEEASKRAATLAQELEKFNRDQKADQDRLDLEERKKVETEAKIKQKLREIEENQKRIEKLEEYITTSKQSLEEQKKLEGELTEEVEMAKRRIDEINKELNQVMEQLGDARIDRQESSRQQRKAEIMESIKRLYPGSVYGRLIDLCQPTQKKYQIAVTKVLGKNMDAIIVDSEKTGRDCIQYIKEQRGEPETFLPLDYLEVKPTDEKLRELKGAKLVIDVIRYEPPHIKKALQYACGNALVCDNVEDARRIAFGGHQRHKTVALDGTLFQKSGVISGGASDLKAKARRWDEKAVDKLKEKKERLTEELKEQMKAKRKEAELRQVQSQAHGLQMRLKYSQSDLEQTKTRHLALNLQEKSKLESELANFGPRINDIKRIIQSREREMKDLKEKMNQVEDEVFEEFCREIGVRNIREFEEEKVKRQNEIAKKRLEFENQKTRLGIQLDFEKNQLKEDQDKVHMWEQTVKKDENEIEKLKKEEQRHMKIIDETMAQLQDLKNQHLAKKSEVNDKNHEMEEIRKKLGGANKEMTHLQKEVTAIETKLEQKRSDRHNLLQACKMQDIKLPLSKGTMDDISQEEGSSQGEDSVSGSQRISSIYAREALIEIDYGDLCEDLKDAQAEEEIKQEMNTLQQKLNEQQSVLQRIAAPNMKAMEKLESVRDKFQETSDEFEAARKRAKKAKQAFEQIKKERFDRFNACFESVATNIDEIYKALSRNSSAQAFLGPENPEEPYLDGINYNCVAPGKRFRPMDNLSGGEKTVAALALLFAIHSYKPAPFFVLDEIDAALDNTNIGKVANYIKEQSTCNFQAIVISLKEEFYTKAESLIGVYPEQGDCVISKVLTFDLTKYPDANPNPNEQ

Experiment [8] addresses Obg-like ATPase 1 (Homo sapiens, UniProt Q9NTK5).

Calls of active or inactive are those of the source.
Note: in the data inactive means no Kd found up to 30 µM.

Chain of Serine/threonine-protein kinase PAK 2 (Q13177 whole entry): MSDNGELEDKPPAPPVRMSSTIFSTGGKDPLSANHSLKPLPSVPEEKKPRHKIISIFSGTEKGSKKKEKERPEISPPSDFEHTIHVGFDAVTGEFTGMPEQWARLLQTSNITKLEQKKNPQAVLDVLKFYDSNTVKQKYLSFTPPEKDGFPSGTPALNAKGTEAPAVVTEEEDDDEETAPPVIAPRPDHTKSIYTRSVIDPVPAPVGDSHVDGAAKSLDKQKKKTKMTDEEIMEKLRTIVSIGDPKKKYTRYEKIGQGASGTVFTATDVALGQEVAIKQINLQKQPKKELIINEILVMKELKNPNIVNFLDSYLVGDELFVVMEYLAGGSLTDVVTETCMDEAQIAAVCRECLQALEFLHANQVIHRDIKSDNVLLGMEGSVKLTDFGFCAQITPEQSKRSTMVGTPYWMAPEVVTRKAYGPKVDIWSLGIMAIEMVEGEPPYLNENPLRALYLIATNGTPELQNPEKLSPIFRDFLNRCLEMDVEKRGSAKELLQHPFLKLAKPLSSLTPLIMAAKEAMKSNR
Chain of Serine/threonine-protein kinase/endoribonuclease IRE2 (Q76MJ5 whole entry): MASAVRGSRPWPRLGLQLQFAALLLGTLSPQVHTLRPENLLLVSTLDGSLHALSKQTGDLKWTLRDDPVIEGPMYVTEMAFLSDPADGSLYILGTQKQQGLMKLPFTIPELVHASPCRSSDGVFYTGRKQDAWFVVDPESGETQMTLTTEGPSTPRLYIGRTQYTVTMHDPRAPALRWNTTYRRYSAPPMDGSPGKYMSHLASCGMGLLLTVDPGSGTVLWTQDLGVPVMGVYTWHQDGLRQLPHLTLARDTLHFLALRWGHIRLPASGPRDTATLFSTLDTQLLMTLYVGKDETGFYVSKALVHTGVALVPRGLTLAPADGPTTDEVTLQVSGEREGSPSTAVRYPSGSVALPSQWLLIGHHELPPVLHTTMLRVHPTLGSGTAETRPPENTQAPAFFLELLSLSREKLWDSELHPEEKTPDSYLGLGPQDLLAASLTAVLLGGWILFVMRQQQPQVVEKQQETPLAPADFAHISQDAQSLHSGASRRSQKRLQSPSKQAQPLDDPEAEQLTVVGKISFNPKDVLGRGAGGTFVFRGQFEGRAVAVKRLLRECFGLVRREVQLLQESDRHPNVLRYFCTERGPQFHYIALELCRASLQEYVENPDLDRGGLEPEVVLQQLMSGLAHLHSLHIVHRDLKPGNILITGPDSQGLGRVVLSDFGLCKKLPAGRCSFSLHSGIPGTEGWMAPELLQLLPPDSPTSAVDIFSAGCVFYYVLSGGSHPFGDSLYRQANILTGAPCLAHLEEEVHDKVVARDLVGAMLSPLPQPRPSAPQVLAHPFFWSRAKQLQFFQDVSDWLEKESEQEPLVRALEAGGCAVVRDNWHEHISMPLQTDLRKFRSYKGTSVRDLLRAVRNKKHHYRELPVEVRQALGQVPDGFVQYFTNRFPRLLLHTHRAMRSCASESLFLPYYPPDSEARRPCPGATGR
Chain of Obg-like ATPase 1 (Q9NTK5 whole entry, looked up): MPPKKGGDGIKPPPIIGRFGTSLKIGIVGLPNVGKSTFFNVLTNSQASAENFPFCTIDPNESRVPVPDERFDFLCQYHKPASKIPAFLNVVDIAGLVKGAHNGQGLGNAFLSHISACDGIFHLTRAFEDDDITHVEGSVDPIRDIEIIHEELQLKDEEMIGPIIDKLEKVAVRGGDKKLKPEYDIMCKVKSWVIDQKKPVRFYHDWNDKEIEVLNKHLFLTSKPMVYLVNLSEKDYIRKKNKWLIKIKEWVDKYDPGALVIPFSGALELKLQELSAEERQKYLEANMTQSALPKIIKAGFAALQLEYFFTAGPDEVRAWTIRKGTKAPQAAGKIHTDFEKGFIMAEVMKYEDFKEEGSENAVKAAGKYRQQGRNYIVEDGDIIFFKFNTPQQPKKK
Chain of Atypical kinase COQ8A, mitochondrial (Q8NI60 whole entry, the tested form may be a part): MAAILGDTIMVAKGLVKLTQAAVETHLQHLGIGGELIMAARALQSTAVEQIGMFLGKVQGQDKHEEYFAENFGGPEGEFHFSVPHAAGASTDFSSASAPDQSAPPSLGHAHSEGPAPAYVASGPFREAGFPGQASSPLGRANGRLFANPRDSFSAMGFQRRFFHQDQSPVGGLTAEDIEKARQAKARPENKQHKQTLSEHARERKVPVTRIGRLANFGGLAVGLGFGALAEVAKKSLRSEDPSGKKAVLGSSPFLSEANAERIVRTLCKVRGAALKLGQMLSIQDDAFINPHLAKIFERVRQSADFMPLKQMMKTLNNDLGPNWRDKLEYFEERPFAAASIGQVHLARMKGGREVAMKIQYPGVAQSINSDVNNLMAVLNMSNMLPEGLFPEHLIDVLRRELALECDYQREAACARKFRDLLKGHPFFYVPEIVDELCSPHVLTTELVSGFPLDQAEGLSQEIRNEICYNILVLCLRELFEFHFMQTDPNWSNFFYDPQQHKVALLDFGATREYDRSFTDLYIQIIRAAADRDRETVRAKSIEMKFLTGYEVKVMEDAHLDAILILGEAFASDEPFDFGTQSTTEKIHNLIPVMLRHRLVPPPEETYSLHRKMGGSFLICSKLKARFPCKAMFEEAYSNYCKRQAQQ
Chain of LIM domain kinase 1 (P53667 whole entry, the tested form may be a part): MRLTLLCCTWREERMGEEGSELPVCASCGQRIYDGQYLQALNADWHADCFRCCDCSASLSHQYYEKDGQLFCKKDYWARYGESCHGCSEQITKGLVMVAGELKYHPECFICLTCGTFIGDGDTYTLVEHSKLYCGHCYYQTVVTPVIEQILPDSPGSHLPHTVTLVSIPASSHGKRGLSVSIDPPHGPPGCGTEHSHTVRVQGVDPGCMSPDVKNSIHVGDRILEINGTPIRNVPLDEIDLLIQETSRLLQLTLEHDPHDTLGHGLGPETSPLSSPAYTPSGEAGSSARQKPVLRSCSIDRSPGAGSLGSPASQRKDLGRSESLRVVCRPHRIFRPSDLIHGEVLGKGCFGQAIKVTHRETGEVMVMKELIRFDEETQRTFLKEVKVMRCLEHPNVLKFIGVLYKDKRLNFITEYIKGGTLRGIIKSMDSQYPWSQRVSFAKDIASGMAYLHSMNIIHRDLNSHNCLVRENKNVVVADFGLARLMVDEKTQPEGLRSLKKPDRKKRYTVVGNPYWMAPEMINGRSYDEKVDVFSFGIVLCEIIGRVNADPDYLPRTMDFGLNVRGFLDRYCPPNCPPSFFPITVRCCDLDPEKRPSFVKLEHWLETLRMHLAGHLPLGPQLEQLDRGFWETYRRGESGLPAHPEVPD

As usually defined, the Kd is the constant that tells how readily two partners part at equilibrium. Turning to `COc1ncc(-c2ccc3nccc(-c4ccnnc4)c3c2)cc1NS(=O)(=O)c1ccc(F)cc1F` [OMIPALISIB], the Kd in experiment [1], in experiment [2], in experiment [3], in experiment [4], in experiment [5] and in experiment [6] was > 30 µM (inactive) in each case. Also, the Kd in experiment [7] and in experiment [8] was > 30 µM (inactive) each time.

As to `CCOc1cc2ncc(C#N)c(Nc3ccc(F)c(Cl)c3)c2cc1NC(=O)/C=C/CN(C)C` [PELITINIB], the Kd in experiment [1], in experiment [2], in experiment [3], in experiment [4], in experiment [5] and in experiment [6] was > 30 µM (inactive) in each case. For the same compound, the Kd in experiment [7] and in experiment [8] was > 30 µM (inactive) each time.

For the compound `CCCCCCCCCCCCCCCCCCOP(=O)([O-])OC1CC[N+](C)(C)CC1` [PERIFOSINE], the Kd in experiment [1], in experiment [2], in experiment [3], in experiment [4], in experiment [5] and in experiment [6] was > 30 µM (inactive) throughout. The Kd in experiment [7] and in experiment [8] was > 30 µM (inactive) in each case.

For the compound `Cc1nc(Nc2n[nH]c3c2CN(C(=O)N[C@H](CN(C)C)c2ccccc2)C3(C)C)c2sccc2n1` [PF-03758309], the Kd in experiment [1], in experiment [2], in experiment [3], in experiment [4], in experiment [5] and in experiment [6] was > 30 µM (inactive) in each case. The Kd in experiment [7] and in experiment [8] was > 30 µM (inactive) in each case.

Consider `Cc1cnc(NC(=O)Nc2cc(Br)c(C)cc2OC[C@@H]2CNCCO2)cn1` [RABUSERTIB], for which the Kd in experiment [1], in experiment [2], in experiment [3], in experiment [4], in experiment [5] and in experiment [6] was > 30 µM (inactive) in each case. Also, the Kd in experiment [7] and in experiment [8] was > 30 µM (inactive) each time.

With `CNC(=O)c1cc(Oc2ccc(NC(=O)Nc3cc(C(C)(C)C)nn3-c3ccc4ncccc4c3)c(F)c2)ccn1` [REBASTINIB], the Kd in experiment [1] was > 30 µM (inactive); in experiment [2] it was > 30 µM (inactive); in experiment [3] it was 0.055 µM (active); in experiment [4], > 30 µM (inactive); in experiment [5], > 30 µM (inactive); in experiment [6], 0.535 µM (active). The Kd in experiment [7] and in experiment [8] was > 30 µM (inactive) each time.

Take `N#CC1(c2ccc(NC(=O)c3cccnc3NCc3ccncc3)cc2)CCCC1` [RIVOCERANIB]: the Kd in experiment [1], in experiment [2], in experiment [3], in experiment [4], in experiment [5] and in experiment [6] was > 30 µM (inactive) in each case. Also, the Kd in experiment [7] and in experiment [8] was > 30 µM (inactive) in each case.

For the compound `O=c1[nH]ccc2cc(OC3CCNCC3)ccc12` [SAR-407899 FREE BASE], the Kd in experiment [1], in experiment [2], in experiment [3], in experiment [4], in experiment [5] and in experiment [6] was > 30 µM (inactive) each time. Further, the Kd in experiment [7] and in experiment [8] was > 30 µM (inactive) throughout.

As to `CO[C@H]1C[C@@H]2CC[C@@H](C)[C@@](O)(O2)C(=O)C(=O)N2CCCC[C@H]2C(=O)O[C@H]([C@H](C)C[C@@H]2CC[C@@H](O)[C@H](OC)C2)CC(=O)[C@H](C)/C=C(\C)[C@@H](O)[C@@H](OC)C(=O)[C@H](C)C[C@H](C)/C=C/C=C/C=C/1C` [SIROLIMUS], the Kd in experiment [1], in experiment [2], in experiment [3], in experiment [4], in experiment [5] and in experiment [6] was > 30 µM (inactive) in each case. The Kd in experiment [7] and in experiment [8] was > 30 µM (inactive) throughout.

Take `CCS(=O)(=O)c1cccc(-c2cc(C(=O)NC3CCN(C)CC3)c(C)c3[nH]c4ncc(C)cc4c23)c1` [TAK-901]: the Kd is > 30 µM (inactive) in experiment [1]; > 30 µM (inactive) in experiment [2]; 0.558 µM in experiment [3]; > 30 µM (inactive) in experiment [4]; > 30 µM (inactive) in experiment [5]; > 30 µM (inactive) in experiment [6]. In addition, the Kd in experiment [7] and in experiment [8] was > 30 µM (inactive) each time.

`CO[C@H]1C[C@@H]2CC[C@@H](C)[C@@](O)(O2)C(=O)C(=O)N2CCCC[C@H]2C(=O)O[C@H]([C@H](C)C[C@@H]2CC[C@@H](OC(=O)C(C)(CO)CO)[C@H](OC)C2)CC(=O)[C@H](C)/C=C(\C)[C@@H](O)[C@@H](OC)C(=O)[C@H](C)C[C@H](C)/C=C/C=C/C=C/1C` [TEMSIROLIMUS]: the Kd in experiment [1], in experiment [2], in experiment [3], in experiment [4], in experiment [5] and in experiment [6] was > 30 µM (inactive) in each case. Also, the Kd in experiment [7] and in experiment [8] was > 30 µM (inactive) each time.
